In publication PMC8221158, “Novel pyrrolizines bearing 3,4,5-trimethoxyphenyl moiety: design, synthesis, molecular docking, and biological evaluation as potential multi-target cytotoxic agents” (Journal of Enzyme Inhibition and Medicinal Chemistry, 2021):
Like-named read-outs stand apart in the source and are kept apart here.

What was measured:
A2780 = experiment: MTT cell proliferation assay; type: cell-based, human; conditions: for IC50: Homo sapiens, A2780, MTT, 72 h treatment, n = 3, read-out: IC50 (µM ± SD) A2780; for Selectivity index A2780: IC50 MRC-5 / IC50 A2780
Procedure: (§1) MCF-7 (human breast adenocarcinoma), A2780 (human ovarian cancer) and HCT116 (human colorectal carcinoma), and MRC-5 (normal foetal lung fibroblast) cell lines were bought from the ATCC and were cultured in flasks which were incubated at 37 °C in an atmosphere of 5% CO2, 95% air, and 100% relative humidity, to maintain continuous logarithmic growth. MCF-7, A2780, and HCT116 were maintained in RPMI-1640 media (100 U/mL penicillin, 100 µg/mL streptomycin, and 10% foetal bovine serum, Gibco, Carlsbad, CA). MRC-5 cells were maintained in EMEM (100 U/mL penicillin, 100 µg/mL streptomycin, and 10% foetal bovine serum, Gibco, Carlsbad, CA). Doxorubicin (5 μg/mL, for three months) added for RPMI-1640 media containing MCF7 cells was used to develop doxorubicin-resistant MCF7/ADR cells. All cancer and normal cell lines were cultured according to our previous report. Cells were used within 10–20 passages and were checked for mycoplasma every 6 months, by measuring the bioluminescence (Myco Alert sample detection kit; Lonza, Basel, Switzerland) using the multiplate reader (Synergy HT, BioTek, Winooski, VT).
(§2) The MTT assay was used to measure the cytotoxicity and growth inhibitory activities and cytotoxicity of the new compounds according to our previous report[13]^,[17]. Cells from flasks of 70–80% confluency were separately seeded in 96-well flat-bottom microculture plates (Nalgene-Nunc, Thermo Fisher Scientific, Roskilde, Denmark) at a density of 3 × 10^3 cells (MCF-7, A2780, and MRC-5), 1 × 10^4 cells (HCT116), to a volume of 180 μL/well of culture medium. A Neubauer haemocytometer was used for cell counting. Cells were incubated at 37 °C overnight to allow attachment to the wells. The final concentrations of each compound in wells were: 0–50 μM in 200 μL of media (DMSO 0.1%). Lapatinib (Cayman, Ann Arbor, MI) was used as a positive control at the same final concentrations. Medium only (20 μL) was added to each control well, and each concentration was tested in triplicates (n = 3). Following incubation for 72 h, 50 μL MTT was added into each well. Plates were incubated for 3 h, the supernatant was aspirated, and 100 μL of DMSO was added to each well. The optical density (OD) of the purple formazan is proportional to the number of viable cells. […] GraphPad Prism version 5.00 for Windows was used for analysis (La Jolla, CA). Cytotoxicity of the new compounds was calculated after treatment of cancer/normal cell lines for 72 h. The absorbance of the reduced MTT was determined using a microplate reader A570 nm.
(§3) The cytotoxic activity of the new compounds (15a–e, 16a–e, 20, and 21) was evaluated in vitro using MTT assay. The MTT assay depends on the reduction of the yellow tetrazole dye (MTT) to the purple formazan by the active mitochondrial dehydrogenase enzymes indicating the viability of the cells which can be measured as OD. The new compounds were evaluated against three non-resistant cancer cell lines: MCF-7, and A2780 cell lines were selected to compare cytotoxicity of the new compounds with the previously reported results of compounds 9a,b[13]. Cytotoxicity of the new compounds was also evaluated also against HCT116 cells which lacks COX-2 protein[33]^,[34].

HCT116 = experiment: MTT cell proliferation assay; type: cell-based, human; conditions: for IC50: Homo sapiens, HCT-116, MTT, 72 h treatment, n = 3, read-out: IC50 (µM ± SD) HCT116; for Selectivity index HCT116: IC50 MRC-5 / IC50 HCT116
Procedure: as §1, §2, §3

MCF-7 = experiment: MTT cell proliferation assay; type: cell-based, human; conditions: for IC50: Homo sapiens, MCF7, MTT, 72 h treatment, n = 3, read-out: IC50 (µM ± SD) MCF-7; for Selectivity index MCF-7: IC50 MRC-5 / IC50 MCF-7
Procedure: as §1, §2, §3

[1] = tested on: MCF-7, HCT116, and A2780 cancer cell lines; experiment: MTT assay, three cancer cell lines taken together (average, overall range); type: cell-based, human; conditions: for IC50: Homo sapiens
Procedure: Cells from flasks of 70–80% confluency were separately seeded in 96-well flat-bottom microculture plates (Nalgene-Nunc, Thermo Fisher Scientific, Roskilde, Denmark) at a density of 3 × 10^3 cells (MCF-7, A2780, and MRC-5), 1 × 10^4 cells (HCT116), to a volume of 180 μL/well of culture medium. […] The final concentrations of each compound in wells were: 0–50 μM in 200 μL of media (DMSO 0.1%). Lapatinib (Cayman, Ann Arbor, MI) was used as a positive control at the same final concentrations. Medium only (20 μL) was added to each control well, and each concentration was tested in triplicates (n = 3). Following incubation for 72 h, 50 μL MTT was added into each well. Plates were incubated for 3 h, the supernatant was aspirated, and 100 μL of DMSO was added to each well. The optical density (OD) of the purple formazan is proportional to the number of viable cells. […] The absorbance of the reduced MTT was determined using a microplate reader A570 nm.

normal MRC-5 cells = experiment: MTT assay, normal cells (cytotoxic selectivity); type: cell-based; conditions: Homo sapiens, MRC5, 72 h treatment, n = 3, read-out: IC50 (µM ± SD) MRC-5
Procedure: as §1, §2
Selectivity towards cancerous cells is one of the important issues which must be considered during the discovery and development of new anticancer agents. To assess the toxicity and selectivity of the new compounds (15a–e, 16a–e, 20, and 21), their growth inhibitory activities against normal human foetal lung fibroblast MRC-5 cells were evaluated using the MTT assay. […] The selectivity of the new compounds towards each of the three cancer cell lines was calculated by dividing their IC50 values against normal MRC-5 cells by their IC50 values against the corresponding cancer cell line (Table 3).

porcine tubulin = target: T1, porcine tubulin (Sus scrofa, UniProt P02550+P02554); experiment: Tubulin polymerisation fluorescence-based assay; type: biochemical; conditions: 0.5 μM, positive control (inhibitor)
T1 construct: purchased Cytoskeleton Inc., Denver, CO BK011P
Procedure: The effect of compounds 16a,b,d on tubulin polymerisation was measured in vitro using tubulin polymerisation fluorescence-based assay (cytoskeleton, cat. BK011P, https://www.cytoskeleton.com/bk011p). The assay was performed following the previous report[22] and according to the manufacturer’s instructions. Briefly, 2 mg/mL porcine tubulin was dissolved in buffer 1 (80 mM PIPES, 2 mM MgCl2, 0.5 mM EGTA pH 6.9, 10 µM fluorescent reporter, 1 mM GTP, 15% glycerol) to a final concentration of […]. Then tubulin solution was transferred to a pre-warmed 96-well plate that contained the test compounds 16a,b,d (5 μM), paclitaxel (3 μM), CaCl2 (0.5 μM), and control buffer. The polymerisation of tubulin was monitored as fluorescence at 37 °C for 60 min. Relative fluorescence units (RFU) were determined at 360 nm for excitation and at 460 nm for emission using the Varioskan Flash spectral scanning multimode reader (Thermo Fisher Scientific, Roskilde, Denmark) at a reading speed of 1 cycle/min.
In the current study, the new compounds were designed bearing the trimethoxy phenyl moiety aiming to obtain new cytotoxic agents that can interfere with tubulin polymerisation in cancer cells. […] In this assay, light scattering by microtubules which is directly proportional to the concentration of the microtubule polymer was used as a measure of tubulin polymerisation. The study was performed using a fluorescence-based tubulin polymerisation assay kit (Cytoskeleton Inc., Denver, CO; Cat # BK011P) following the manufacturer’s instructions (https://www.cytoskeleton.com/bk011p) and according to the previous report.
Paclitaxel (3 μM) was used as a tubulin polymerisation enhancer (positive control, enhancer), while calcium chloride (CaCl2, 0.5 μM) was used as a positive control (inhibitor) as per the manufacturer’s instructions (https://www.cytoskeleton.com/pdf-storage/datasheets/bk011p.pdf). The vehicle was also used to evaluate the polymerisation when tubulin is incubated in the absence of the test compound. The effect of the selected compounds (5 μM) on tubulin polymerisation was evaluated and compared with those of the positive control. The results are represented in Figure 8.

[2] = MCF-7, HCT116, A2780, read-out: Average of the three IC50 values against the three cancer cell lines

T1 sequence (P02550 whole entry): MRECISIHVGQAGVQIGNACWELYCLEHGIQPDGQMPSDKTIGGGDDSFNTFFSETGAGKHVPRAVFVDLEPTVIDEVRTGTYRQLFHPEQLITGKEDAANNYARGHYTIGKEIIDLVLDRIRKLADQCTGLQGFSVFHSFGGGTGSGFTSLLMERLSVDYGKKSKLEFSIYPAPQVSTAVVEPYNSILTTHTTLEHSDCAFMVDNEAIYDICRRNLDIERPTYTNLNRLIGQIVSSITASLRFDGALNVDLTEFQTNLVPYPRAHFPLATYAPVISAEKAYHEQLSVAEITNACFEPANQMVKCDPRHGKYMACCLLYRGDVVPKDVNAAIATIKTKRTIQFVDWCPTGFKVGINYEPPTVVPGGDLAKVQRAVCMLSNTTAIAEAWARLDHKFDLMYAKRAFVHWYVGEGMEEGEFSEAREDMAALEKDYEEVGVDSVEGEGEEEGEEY
T1 sequence (P02554 whole entry): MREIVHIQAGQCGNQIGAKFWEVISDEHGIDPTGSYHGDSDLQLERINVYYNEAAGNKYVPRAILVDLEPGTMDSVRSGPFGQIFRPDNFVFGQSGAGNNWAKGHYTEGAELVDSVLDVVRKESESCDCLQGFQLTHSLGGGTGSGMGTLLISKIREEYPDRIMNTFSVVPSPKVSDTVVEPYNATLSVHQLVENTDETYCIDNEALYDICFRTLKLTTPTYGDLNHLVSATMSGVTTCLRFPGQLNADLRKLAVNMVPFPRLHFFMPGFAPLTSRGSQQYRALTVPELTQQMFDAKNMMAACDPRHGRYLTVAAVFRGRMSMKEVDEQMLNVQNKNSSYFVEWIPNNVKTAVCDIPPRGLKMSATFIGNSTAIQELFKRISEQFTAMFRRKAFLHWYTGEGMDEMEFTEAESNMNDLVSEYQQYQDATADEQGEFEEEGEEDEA

Structure (SMILES) | IC50 (A2780) [µM] | Selectivity index A2780 (A2780) | IC50 (HCT116) [µM] | Selectivity index HCT116 (HCT116) | IC50 (MCF-7) [µM] | Selectivity index MCF-7 (MCF-7) | IC50 [1, 2] [nM] | IC50 (normal MRC-5 cells) [µM] | melting point [°C] | effect on tubulin polymerisation (porcine tubulin) | IC50 ([1]; MTT, 72 h, range over MCF-7, HCT116, A2780, read-out: IC50 against the three cancer cell lines) [nM] | fold increase in cytotoxicity against the three cancer cell lines ([1]; relative to compound 15a (ring expansion))
COc1cc(C=Nc2c(C#N)c3n(c2C(=O)Nc2ccccc2)CCC3)cc(OC)c1OC [15a, 7-Cyano-N-phenyl-6-((3,4,5-trimethoxybenzylidene)amino)-2,3-dihydro-1H-pyrrolizine-5-carboxamide] | 25.8 ± 4.99 | 0.07 | 0.353 ± 0.088 | 4.92 | 36.9 ± 4.4 | 0.05 | 21000 | 1.74 ± 0.149 | 242 to 244 |  |  | 
COc1cc(C=Nc2c(C#N)c3n(c2C(=O)Nc2ccc(C)cc2)CCC3)cc(OC)c1OC [15b, 7-Cyano-N-(p-tolyl)-6-((3,4,5-trimethoxybenzylidene)amino) -2,3-dihydro-1H-pyrrolizine-5-carboxamide] | 33.4 ± 3.73 | 0.10 | 19.8 ± 7.76 | 0.17 | 35.9 ± 4.44 | 0.09 | 29700 | 3.33 ± 1 | 251 to 253 |  |  | 
COc1ccc(NC(=O)c2c(N=Cc3cc(OC)c(OC)c(OC)c3)c(C#N)c3n2CCC3)cc1 [15c, 7-Cyano-N-(4-methoxyphenyl)-6-((3,4,5-trimethoxybenzylidene)amino)-2,3-dihydro-1H-pyrrolizine-5-carboxamide] | 0.041 ± 0.008 | 48.27 | 0.096 ± 0.015 | 20.47 | 0.616 ± 0.01 | 3.21 | 251 | 1.98 ± 0.561 | 263 to 265 |  |  | 
COc1cc(C=Nc2c(C#N)c3n(c2C(=O)Nc2ccc(Cl)cc2)CCC3)cc(OC)c1OC [15d, N-(4-Chlorophenyl)-7-cyano-6-((3,4,5-trimethoxybenzylidene)amino)-2,3-dihydro-1H-pyrrolizine-5-carboxamide] | 0.07 ± 0.002 | 29.61 | 0.534 ± 0.204 | 3.88 | 21.8 ± 3.18 | 0.10 | 7450 | 2.07 ± 0.054 | 271 to 273 |  |  | 
COc1cc(C=Nc2c(C#N)c3n(c2C(=O)Nc2ccc(Br)cc2)CCC3)cc(OC)c1OC [15e, N-(4-Bromophenyl)-7-cyano-6-((3,4,5-trimethoxybenzylidene)amino)-2,3-dihydro-1H-pyrrolizine-5-carboxamide] | 0.311 ± 0.041 | 54.92 | 0.144 ± 0.049 | 118.61 | 0.187 ± 0.098 | 91.24 | 214 | 17.1 ± 0.552 | 277 to 280 |  |  | 
COc1ccc(NC(=O)c2c(NC(=O)c3cc(OC)c(OC)c(OC)c3)c(C#N)c3n2CCC3)cc1 [16c, 7-Cyano-N-(4-methoxyphenyl)-6-(3,4,5-trimethoxybenzamido)-2,3-dihydro-1H-pyrrolizine-5-carboxamide] | 0.144 ± 0.012 | 4.62 | 0.032 ± 0.014 | 20.78 | 1.47 ± 0.452 | 0.45 | 549 | 0.665 ± 0.191 | 259 to 261 |  |  | 
COc1cc(C(=O)Nc2c(C#N)c3n(c2C(=O)Nc2ccc(Br)cc2)CCC3)cc(OC)c1OC [16e, N-(4-Bromophenyl)-7-cyano-6-(3,4,5-trimethoxybenzamido) -2,3-dihydro-1H-pyrrolizine-5-carboxamide] | 0.914 ± 0.092 | 5.75 | 0.173 ± 0.039 | 30.40 | 0.361 ± 0.039 | 14.57 | 483 | 5.26 ± 1.4 | 286 to 288 |  |  | 
[Ca+2].[Cl-].[Cl-] [CaCl2, calcium chloride, reference compound] |  |  |  |  |  |  |  |  |  | inhibited tubulin polymerisation and reduced the final polymer mass |  | 
CS(=O)(=O)CCNCc1ccc(-c2ccc3ncnc(Nc4ccc(OCc5cccc(F)c5)c(Cl)c4)c3c2)o1 [Lapatinib, reference compound] | 9.72 ± 0.845 | 1.40 | 10 ± 1.13 | 1.36 | 6.69 ± 1.09 | 2.04 | 8830 | 13.7 ± 2.9 |  |  | 6690 to 10000 | 
COc1cc(C=Nc2c(C#N)c3n(c2C(=O)Nc2ccccc2)CCCC3)cc(OC)c1OC [compound 20, 1-Cyano-N-phenyl-2-((3,4,5-trimethoxybenzylidene)amino)-5,6,7,8-tetrahydroindolizine-3-carboxamide] | 0.938 ± 0.116 | 1.62 | 0.247 ± 0.069 | 6.14 | 5.72 ± 0.185 | 0.27 | 2300 | 1.52 ± 0.103 | 247 to 249 |  |  | 1.4–27.5 fold
COc1cc(C(=O)Nc2c(C#N)c3n(c2C(=O)Nc2ccccc2)CCCC3)cc(OC)c1OC [compound 21, 1-Cyano-N-phenyl-2-(3,4,5-trimethoxybenzamido)-5,6,7,8-tetrahydroindolizine-3-carboxamide] | 0.598 ± 0.039 |  | 0.176 ± 0.017 |  | 0.6 ± 0.054 |  | 458 | 0.584 ± 0.094 |  |  |  | 
